Results reported in US10968203B2, “Pyrimidinyl-pyridyloxy-naphthyl compounds and methods of treating IRE1-related diseases and disorders” (Genentech, Inc., priority 2017, dated 2021).

The compounds below were run on XBP1s-luc 293 LUC (assay: cellular PD assay, XBP1s-LUC reporter (Example 903)). Conditions: Table 1; read-out: XBP1s-luc 293 LUC (IC50).
Format: cell-based
In short: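 Cellular IRE1α pathway activity was quantified from the luciferase signal of an XBP1-Luc reporter, where the luciferase fusion is in frame and expressed only from the spliced XBP1 transcript.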

For `Cc1ccc2c(NS(=O)(=O)Cc3cccc(F)c3F)c(F)ccc2c1Oc1ncccc1-c1ccnc(N[C@H]2CCCNC2)n1` [Example 189, (S)-1-(2,3-Difluorophenyl)-N-(2-fluoro-6-methyl-5-((3-(2-(piperidin-3-ylamino)pyrimidin-4-yl)pyridin-2-yl)oxy)naphthalen-1-yl)methanesulfonamide], which IC50 is on record?
The IC50 was 0.00507 µM.

`Cc1ccc2c(NC(=O)C3CCCCC3)cccc2c1Oc1ncccc1-c1ccnc(N[C@H]2CCCNC2)n1` [Example 190, (S)—N-(6-Methyl-5-((3-(2-(piperidin-3-ylamino)pyrimidin-4-yl)pyridin-2-yl)oxy)naphthalen-1-yl)cyclohexanecarboxamide] was tested. Which IC50 did it give?
The IC50 was 0.273 µM.

How did the IC50 turn out when `Cc1ccc2c(NC(=O)CC3CC3)cccc2c1Oc1ncccc1-c1ccnc(N[C@H]2CCCNC2)n1` [Example 191, (S)-2-Cyclopropyl-N-(6-methyl-5-((3-(2-(piperidin-3-ylamino)pyrimidin-4-yl)pyridin-2-yl)oxy)naphthalen-1-yl)acetamide] was run?
Its IC50 is 0.234 µM.

Which IC50 does the source give for `Cc1nc(Nc2cccc3c(Oc4ncccc4-c4ccnc(N[C@H]5CCCNC5)n4)c(C)ccc23)cs1` [Example 192, (S)-2-Methyl-N-(6-methyl-5-((3-(2-(piperidin-3-ylamino)pyrimidin-4-yl)pyridin-2-yl)oxy)naphthalen-1-yl)thiazol-4-amine] here?
Its IC50 is 0.444 µM.

How did the IC50 turn out when `Cc1ccc2c(NC(=O)Cc3cccc(F)c3)cccc2c1Oc1ncccc1-c1ccnc(N[C@H]2CCCNC2)n1` [Example 193, (S)-2-(3-Fluorophenyl)-N-(6-methyl-5-((3-(2-(piperidin-3-ylamino)pyrimidin-4-yl)pyridin-2-yl)oxy)naphthalen-1-yl)acetamide] was run?
The IC50 was 0.086 µM.

Which IC50 does the source give for `Cc1ccc2c(N3CCCS3(=O)=O)cccc2c1Oc1ncccc1-c1ccnc(N[C@H]2CCCNC2)n1` [Example 194, (S)-2-(6-Methyl-5-((3-(2-(piperidin-3-ylamino)pyrimidin-4-yl)pyridin-2-yl)oxy)naphthalen-1-yl)isothiazolidine 1,1-dioxide] here?
Its IC50 is 0.313 µM.

For `Cc1ccc2c(NS(=O)(=O)N3CCC3)cccc2c1Oc1ncccc1-c1ccnc(N[C@H]2CCCNC2)n1` [Example 195, (S)—N-(6-Methyl-5-((3-(2-(piperidin-3-ylamino)pyrimidin-4-yl)pyridin-2-yl)oxy)naphthalen-1-yl)azetidine-1-sulfonamide], which IC50 is on record?
The IC50 was 0.202 µM.

`CCCCNc1cccc2c(Oc3ncccc3-c3ccnc(N[C@H]4CCCNC4)n3)c(C)ccc12` [Example 197, (S)-4-(2-((5-(Butylamino)-2-methylnaphthalen-1-yl)oxy)pyridin-3-yl)-N-(piperidin-3-yl)pyrimidin-2-amine] was tested. Which IC50 did it give?
Its IC50 is 0.228 µM.

How did the IC50 turn out when `Cc1ccc2c(NC(=O)CC(C)(C)C)cccc2c1Oc1ncccc1-c1ccnc(N[C@H]2CCCNC2)n1` [Example 198, (S)-3,3-Dimethyl-N-(6-methyl-5-((3-(2-(piperidin-3-ylamino)pyrimidin-4-yl)pyridin-2-yl)oxy)naphthalen-1-yl)butanamide] was run?
The IC50 was 0.161 µM.

With `Cc1ccc2c(NC(=O)Cc3ccc(F)cc3)cccc2c1Oc1ncccc1-c1ccnc(N[C@H]2CCCNC2)n1` [Example 199, (S)-2-(4-Fluorophenyl)-N-(6-methyl-5-((3-(2-(piperidin-3-ylamino)pyrimidin-4-yl)pyridin-2-yl)oxy)naphthalen-1-yl)acetamide] as the compound, how does the IC50 read?
Its IC50 is 0.155 µM.

Which IC50 does the source give for `CC[C@H](C)C(=O)Nc1cccc2c(Oc3ncccc3-c3ccnc(N[C@H]4CCCNC4)n3)c(C)ccc12` [Example 203, (S)-2-methyl-N-(6-methyl-5-((3-(2-(((S)-piperidin-3-yl)amino)pyrimidin-4-yl)pyridin-2-yl)oxy)naphthalen-1-yl)butanamide] here?
The IC50 was 0.161 µM.

For `CC[C@@H](C)C(=O)Nc1cccc2c(Oc3ncccc3-c3ccnc(N[C@H]4CCCNC4)n3)c(C)ccc12` [Example 204, (R)-2-methyl-N-(6-methyl-5-((3-(2-(((S)-piperidin-3-yl)amino)pyrimidin-4-yl)pyridin-2-yl)oxy)naphthalen-1-yl)butanamide], which IC50 is on record?
Its IC50 is 0.449 µM.

Which IC50 does the source give for `Cc1cnn(-c2cccc3c(Oc4ncccc4-c4ccnc(N[C@H]5CCCNC5)n4)c(C)ccc23)c1` [Example 207, (S)-4-(2-((2-Methyl-5-(4-methyl-1H-pyrazol-1-yl)naphthalen-1-yl)oxy)pyridin-3-yl)-N-(piperidin-3-yl)pyrimidin-2-amine] here?
The IC50 was 0.251 µM.

`Cc1ccc2c(NS(=O)(=O)Cc3ccc(Cl)cc3)c(F)ccc2c1Oc1ncccc1-c1ccnc(N[C@H]2CCCNC2)n1` [Example 209, (S)-1-(4-Chlorophenyl)-N-(2-fluoro-6-methyl-5-((3-(2-(piperidin-3-ylamino)pyrimidin-4-yl)pyridin-2-yl)oxy)naphthalen-1-yl)methanesulfonamide] was tested. Which IC50 did it give?
Its IC50 is 0.00804 µM.

With `Cc1ncc(S(=O)(=O)Nc2cccc3c(Oc4ncccc4-c4ccnc(N[C@H]5CCCNC5)n4)c(C)ccc23)s1` [Example 210, (S)-2-Methyl-N-(6-methyl-5-((3-(2-(piperidin-3-ylamino)pyrimidin-4-yl)pyridin-2-yl)oxy)naphthalen-1-yl)thiazole-5-sulfonamide] as the compound, how does the IC50 read?
The IC50 was 0.459 µM.

With `Cc1ccc2c(NCc3cscn3)cccc2c1Oc1ncccc1-c1ccnc(N[C@H]2CCCNC2)n1` [Example 211, (S)-4-(2-((2-Methyl-5-((thiazol-4-ylmethyl)amino)naphthalen-1-yl)oxy)pyridin-3-yl)-N-(piperidin-3-yl)pyrimidin-2-amine] as the compound, how does the IC50 read?
Its IC50 is 0.07 µM.

Which IC50 does the source give for `Cc1ccc2c(NS(=O)(=O)Cc3c(F)cccc3F)c(F)ccc2c1Oc1ncccc1-c1ccnc(N[C@H]2CCCNC2)n1` [Example 213, (S)-1-(2,6-Difluorophenyl)-N-(2-fluoro-6-methyl-5-((3-(2-(piperidin-3-ylamino)pyrimidin-4-yl)pyridin-2-yl)oxy)naphthalen-1-yl)methanesulfonamide] here?
The IC50 was 0.00457 µM.

For `Cc1ccc2c(NS(=O)(=O)[C@H](C)c3ccccc3)cccc2c1Oc1ncccc1-c1ccnc(N[C@H]2CCCNC2)n1` [Example 215, (R)—N-(6-methyl-5-((3-(2-((S)-piperidin-3-ylamino)pyrimidin-4-yl)pyridin-2-yl)oxy)naphthalen-1-yl)-1-phenylethanesulfonamide], which IC50 is on record?
The IC50 was 0.211 µM.

With `Cc1ccc2c(N3CCCC3=O)cccc2c1Oc1ncccc1-c1ccnc(N[C@H]2CCCNC2)n1` [Example 216, (S)-1-(6-Methyl-5-((3-(2-(piperidin-3-ylamino)pyrimidin-4-yl)pyridin-2-yl)oxy)naphthalen-1-yl)pyrrolidin-2-one] as the compound, how does the IC50 read?
The IC50 was 0.26 µM.

With `Cc1ccc2c(NC(=O)C3CC(F)(F)C3)cccc2c1Oc1ncccc1-c1ccnc(N[C@H]2CCCNC2)n1` [Example 219, (S)-3,3-Difluoro-N-(6-methyl-5-(3-(2-(piperidin-3-ylamino)pyrimidin-4-yl)pyridin-2-yloxy)naphthalen-1-yl)cyclobutanecarboxamide] as the compound, how does the IC50 read?
Its IC50 is 0.119 µM.

Which IC50 does the source give for `Cc1ccc2c(NC(=O)C3(C(F)(F)F)CC3)cccc2c1Oc1ncccc1-c1ccnc(N[C@H]2CCCNC2)n1` [Example 220, (S)—N-(6-Methyl-5-(3-(2-(piperidin-3-ylamino)pyrimidin-4-yl)pyridin-2-yloxy)naphthalen-1-yl)-1-(trifluoromethyl)cyclopropanecarboxamide] here?
The IC50 was 0.309 µM.

How did the IC50 turn out when `CCCS(=O)(=O)Nc1c(F)ccc2c(Oc3ncccc3-c3ccnc(N[C@H]4CCCNC4)n3)c(C)ccc12` [Example 221, (S)—N-(2-Fluoro-6-methyl-5-((3-(2-(piperidin-3-ylamino)pyrimidin-4-yl)pyridin-2-yl)oxy)naphthalen-1-yl)propane-1-sulfonamide] was run?
The IC50 was 0.037 µM.

Which IC50 does the source give for `Cc1ccc2c(NC(=O)[C@H]3C[C@H]3F)cccc2c1Oc1ncccc1-c1ccnc(N[C@H]2CCCNC2)n1` [Example 222, (1R,2R)-2-Fluoro-N-[6-methyl-5-[[3-[2-[[(3S)-3-piperidyl]amino]pyrimidin-4-yl]-2-pyridyl]oxy]-1-naphthyl]cyclopropanecarboxamide] here?
Its IC50 is 0.093 µM.

For `Cc1ccc2c(NCC3CC3)cccc2c1Oc1ncccc1-c1ccnc(N[C@H]2CCCNC2)n1` [Example 223, (S)-4-(2-((5-((Cyclopropylmethyl)amino)-2-methylnaphthalen-1-yl)oxy)pyridin-3-yl)-N-(piperidin-3-yl)pyrimidin-2-amine], which IC50 is on record?
Its IC50 is 0.212 µM.

For `Cc1ccc2c(NCCC3CC3)cccc2c1Oc1ncccc1-c1ccnc(N[C@H]2CCCNC2)n1` [Example 224, (S)-4-(2-((5-((2-Cyclopropylethyl)amino)-2-methylnaphthalen-1-yl)oxy)pyridin-3-yl)-N-(piperidin-3-yl)pyrimidin-2-amine], which IC50 is on record?
Its IC50 is 0.177 µM.

`Cc1ccc2c(NS(=O)(=O)Cc3ccccn3)cccc2c1Oc1ncccc1-c1ccnc(N[C@@H]2CNC[C@H](F)C2)n1` [Example 225, N-(5-((3-(2-(((3S,5R)-5-Fluoropiperidin-3-yl)amino)pyrimidin-4-yl)pyridin-2-yl)oxy)-6-methylnaphthalen-1-yl)-1-(pyridin-2-yl)methanesulfonamide] was tested. Which IC50 did it give?
The IC50 was 0.467 µM.

With `Cc1ccc2c(NC(=O)[C@@H]3C[C@H]3C)cccc2c1Oc1ncccc1-c1ccnc(N[C@H]2CCCNC2)n1` [Example 232, (1R,2R)-2-Methyl-N-(6-methyl-5-((3-(2-(((S)-piperidin-3-yl)amino)pyrimidin-4-yl)pyridin-2-yl)oxy)naphthalen-1-yl)cyclopropane-1-carboxamide] as the compound, how does the IC50 read?
The IC50 was 0.136 µM.

With `Cc1ccc2c(NC(=O)[C@H]3C[C@@H]3C)cccc2c1Oc1ncccc1-c1ccnc(N[C@H]2CCCNC2)n1` [Example 234, (1S,2S)-2-Methyl-N-(6-methyl-5-((3-(2-(((S)-piperidin-3-yl)amino)pyrimidin-4-yl)pyridin-2-yl)oxy)naphthalen-1-yl)cyclopropane-1-carboxamide] as the compound, how does the IC50 read?
The IC50 was 0.111 µM.

How did the IC50 turn out when `Cc1ccc2c(NC(=O)[C@H]3C[C@@H]3F)cccc2c1Oc1ncccc1-c1ccnc(N[C@H]2CCCNC2)n1` [Example 235, (1R,2S)-2-Fluoro-N-(6-methyl-5-((3-(2-(((S)-piperidin-3-yl)amino)pyrimidin-4-yl)pyridin-2-yl)oxy)naphthalen-1-yl)cyclopropane-1-carboxamide] was run?
The IC50 was 0.145 µM.

For `Cc1ccc2c(NC(=O)[C@@H]3C[C@H]3F)cccc2c1Oc1ncccc1-c1ccnc(N[C@H]2CCCNC2)n1` [Example 236, (1S,2R)-2-Fluoro-N-(6-methyl-5-((3-(2-(((S)-piperidin-3-yl)amino)pyrimidin-4-yl)pyridin-2-yl)oxy)naphthalen-1-yl)cyclopropane-1-carboxamide], which IC50 is on record?
Its IC50 is 0.174 µM.
